Data on seven compounds can be found in patent publication US20240034731A1, “AZA-QUINAZOLINE COMPOUNDS AND METHODS OF USE” (Iambic Therapeutics, Inc., priority 2022, published 2024).

One experiment has as its system MCF-7 cells. Kind of experiment: Cell Growth Inhibition, MCF-7 (CellTiterGlo, 6 days). Particulars: Homo sapiens, MCF7, 144 h, MCF-7, 6-day treatment. Format: cell-based. The gist of the method:
(§1)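 MCF-7 (ER+ breast adenocarcinoma) or CCNE1-amplified OVCAR-3 cells, 500/well in RPMI with 10% FBS, treated with half-log dilutions typically 10-10,000 nM for 6 days at 37 °C. CellTiterGlo 2.0 luminescence gave % growth inhibition versus control; IC50 by four-parameter variable-slope fit.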
In general terms: In ATP-based viability assays light output follows the ATP content of the culture.

The next experiment addresses CDK6/Cyclin D3 (Homo sapiens (Human), UniProt Q00534). The experiment can be described thus: CDK6/Cyclin D3 ADP-Glo Kinase Assay. Format: biochemical. Particulars: 100 uM ATP, read-out: CDK6/ CyclinD3 IC50. The procedure, abridged:
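Enzyme and inhibitor were pre-incubated for 30 min at room temperature before ATP/substrate was added. The kinase reaction ran 90 min at room temperature, and ADP formed was detected by ADP-Glo luminescence. IC50 was fitted with a 4-parameter equation to fractional velocity versus inhibitor concentration.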
(ADP-Glo turns the ADP formed in a reaction into a luminescent signal.)

The target in the next experiment is CDK4/Cyclin D1 (Homo sapiens (Human), UniProt P11802). The experiment can be described thus: CDK4/Cyclin D1 CHEF Assay (AQT0258 peptide). Format: biochemical. Particulars: 200 uM ATP, read-out: CDK4/ CyclinD1 AQT IC50. The procedure, abridged: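 Sox-labelled peptide AQT0258 phosphorylation read as chelation-enhanced fluorescence (ex 360/em 485 nm) with Mg(II). Enzyme preincubated with inhibitor 30 min at 22°C, substrate added, 3 h at 22°C; IC50 from four-parameter fit of fractional velocity versus inhibitor concentration.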

The subject of the next experiment is OVCAR-3 cells. The experiment can be described thus: Cell Growth Inhibition, OVCAR-3 (CellTiterGlo, 6 days). Format: cell-based. Particulars: Homo sapiens, 144 h, OVCAR-3, 6-day treatment. The procedure, abridged: as §1
The next experiment deals with CDK2/Cyclin E1 (Homo sapiens (Human), UniProt P24941). The experiment can be described thus: CDK2/Cyclin E1 Full length ADP-Glo Kinase Assay. Format: biochemical. Particulars: 20 uM ATP, read-out: CDK2/ CyclinE1 IC50. The gist of the method: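 Full-length human CDK2/cyclin E1 was preincubated 30 min at room temperature with inhibitor, then reacted 90 min with ATP-containing substrate solution. ADP formed was measured by ADP-Glo luminescence; IC50 from 4-parameter fit of fractional velocity versus inhibitor concentration.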

The next experiment deals with CDK1/Cyclin B1 (Homo sapiens (Human), UniProt P06493). The experiment can be described thus: CDK1/Cyclin B1 ADP-Glo Kinase Assay. Format: biochemical. The gist of the method: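 Enzyme and inhibitor pre-incubated 30 min at room temperature before ATP/substrate addition; reaction run 90 min at room temperature. ADP formed measured by ADP-Glo luminescence; IC50 from a 4-parameter fit of fractional velocity versus inhibitor concentration.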

Where [1] appears, read: ADP-Glo, 80 uM ATP, read-out: CDK1 Cyclin B1 IC50.

Read-outs that look alike come from different tables or passages of the source. Bounds are passed on as bounds.

CDK4/Cyclin D1, sequence (P11802 whole entry): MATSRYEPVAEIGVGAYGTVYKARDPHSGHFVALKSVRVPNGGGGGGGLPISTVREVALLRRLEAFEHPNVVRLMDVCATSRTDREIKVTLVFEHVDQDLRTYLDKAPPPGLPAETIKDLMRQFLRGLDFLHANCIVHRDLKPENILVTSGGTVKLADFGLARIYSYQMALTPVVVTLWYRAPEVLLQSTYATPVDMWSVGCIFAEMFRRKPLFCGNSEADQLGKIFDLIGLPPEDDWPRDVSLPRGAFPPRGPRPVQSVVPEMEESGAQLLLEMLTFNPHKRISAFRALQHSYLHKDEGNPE
CDK4/Cyclin D1, sequence (P24385 whole entry partner): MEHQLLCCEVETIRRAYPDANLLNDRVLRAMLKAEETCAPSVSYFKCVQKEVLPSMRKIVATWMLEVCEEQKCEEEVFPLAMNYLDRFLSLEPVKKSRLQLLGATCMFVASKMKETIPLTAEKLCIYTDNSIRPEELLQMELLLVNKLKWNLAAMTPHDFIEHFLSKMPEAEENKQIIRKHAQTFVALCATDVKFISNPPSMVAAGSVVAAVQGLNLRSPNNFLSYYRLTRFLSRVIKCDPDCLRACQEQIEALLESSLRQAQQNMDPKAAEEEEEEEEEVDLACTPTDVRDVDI
CDK6/Cyclin D3, sequence (Q00534 whole entry): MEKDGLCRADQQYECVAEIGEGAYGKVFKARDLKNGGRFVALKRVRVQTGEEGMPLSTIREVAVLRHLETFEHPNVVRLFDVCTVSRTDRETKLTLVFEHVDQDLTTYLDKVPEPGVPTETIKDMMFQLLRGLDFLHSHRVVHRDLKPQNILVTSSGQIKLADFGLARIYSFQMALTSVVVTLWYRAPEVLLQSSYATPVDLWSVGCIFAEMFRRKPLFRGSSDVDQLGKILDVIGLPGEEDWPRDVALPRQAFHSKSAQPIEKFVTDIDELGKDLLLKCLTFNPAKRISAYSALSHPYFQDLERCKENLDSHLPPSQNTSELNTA
CDK6/Cyclin D3, sequence (P30281 whole entry partner): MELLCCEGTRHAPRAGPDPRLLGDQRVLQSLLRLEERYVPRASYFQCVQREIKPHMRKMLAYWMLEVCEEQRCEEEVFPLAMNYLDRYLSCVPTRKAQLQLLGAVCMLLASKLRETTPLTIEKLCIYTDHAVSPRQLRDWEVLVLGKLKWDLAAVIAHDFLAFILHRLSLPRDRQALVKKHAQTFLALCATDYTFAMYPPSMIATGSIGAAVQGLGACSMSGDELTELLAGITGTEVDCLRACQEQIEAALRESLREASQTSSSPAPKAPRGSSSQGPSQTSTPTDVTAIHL
CDK1/Cyclin B1, sequence (P06493 whole entry): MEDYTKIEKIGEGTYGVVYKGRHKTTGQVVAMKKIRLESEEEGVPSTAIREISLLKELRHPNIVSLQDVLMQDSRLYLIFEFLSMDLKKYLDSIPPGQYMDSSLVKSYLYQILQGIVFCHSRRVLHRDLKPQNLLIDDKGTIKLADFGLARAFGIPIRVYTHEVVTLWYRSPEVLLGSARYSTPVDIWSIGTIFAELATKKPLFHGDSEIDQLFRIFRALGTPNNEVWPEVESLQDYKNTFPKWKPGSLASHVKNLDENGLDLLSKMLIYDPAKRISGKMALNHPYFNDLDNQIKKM
CDK1/Cyclin B1, sequence (P14635 whole entry partner): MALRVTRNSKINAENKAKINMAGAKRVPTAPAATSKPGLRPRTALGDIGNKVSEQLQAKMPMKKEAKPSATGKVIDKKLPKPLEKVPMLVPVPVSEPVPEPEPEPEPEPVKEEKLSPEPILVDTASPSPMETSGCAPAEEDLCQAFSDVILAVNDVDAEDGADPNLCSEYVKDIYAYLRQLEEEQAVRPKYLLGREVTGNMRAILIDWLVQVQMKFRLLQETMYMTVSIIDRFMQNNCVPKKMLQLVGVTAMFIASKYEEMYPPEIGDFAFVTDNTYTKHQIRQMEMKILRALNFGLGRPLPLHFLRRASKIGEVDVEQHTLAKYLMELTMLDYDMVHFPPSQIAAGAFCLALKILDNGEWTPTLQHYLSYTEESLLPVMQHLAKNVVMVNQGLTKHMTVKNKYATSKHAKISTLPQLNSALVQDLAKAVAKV

As to `Cc1cc2cnc(NC3CCN(S(C)(=O)=O)CC3)nc2c(N2CC(F)(F)C3(CN(C)C3)C2)n1` [Compound 96, 8-(8,8-difluoro-2-methyl-2,6-diazaspiro[3.4]octan-6-yl)-6-methyl-N-(1-(methylsulfonyl)piperidin-4-yl)pyrido[3,4-d]pyrimidin-2-amine], the IC50 in the experiment with MCF-7 cells was 200 to 500 nM; on CDK6/Cyclin D3, less than 200 nM; at CDK4/Cyclin D1 it was less than 200 nM; in the experiment on OVCAR-3 cells, 500 to 2000 nM; on CDK2/Cyclin E1 it was less than 200 nM; on CDK1/Cyclin B1 (setting [1]), less than 200 nM.
Regarding `Cc1cc2cnc(Nc3ccc4c(c3)CN(C3CC3)C4)nc2c(N2CC3(CCNC3)C2)n1` [Compound 47, N-(2-cyclopropylisoindolin-5-yl)-6-methyl-8-(2,6-diazaspiro[3.4]octan-2-yl)pyrido[3,4-d]pyrimidin-2-amine], the IC50 with MCF-7 cells is 500 to 2000 nM; on CDK6/Cyclin D3 it was less than 200 nM; at CDK4/Cyclin D1 it was less than 200 nM; with OVCAR-3 cells it was 500 to 2000 nM; on CDK2/Cyclin E1 it was less than 200 nM; on CDK1/Cyclin B1 (setting [1]), 500 to 2000 nM.
Take `FC(F)c1cc2cnc(Nc3ccc4c(c3)CN(C3CC3)C4)nc2c(N2CC3(CCNC3)C2)n1` [Compound 50, N-(2-cyclopropylisoindolin-5-yl)-6-(difluoromethyl)-8-(2,6-diazaspiro[3.4]octan-2-yl)pyrido[3,4-d]pyrimidin-2-amine]: the IC50 is 500 to 2000 nM in the experiment with MCF-7 cells; less than 200 nM at CDK6/Cyclin D3; less than 200 nM at CDK4/Cyclin D1; 500 to 2000 nM with OVCAR-3 cells; less than 200 nM on CDK2/Cyclin E1; 500 to 2000 nM at CDK1/Cyclin B1 (setting [1]).
`Cc1cc2cnc(N[C@H]3CC[C@@H](CN(C)C)CC3)nc2c(N2CCC3(C2)CC3(F)F)n1` (stereo partly drawn) [Compound 45, 8-(1,1-difluoro-5-azaspiro[2.4]heptan-5-yl)-N-((1s,4s)-4-((dimethylamino)methyl)cyclohexyl)-6-methylpyrido[3,4-d]pyrimidin-2-amine]: the IC50 in the experiment with MCF-7 cells was more than 2000 nM; on CDK6/Cyclin D3, 500 to 2000 nM; on CDK4/Cyclin D1 it was less than 200 nM; with OVCAR-3 cells, more than 2000 nM; at CDK2/Cyclin E1, more than 2000 nM; at CDK1/Cyclin B1 (setting [1]), 1 nM.
Turning to `Cc1cc2cnc(Nc3ccc(N4CC5(CN(C)C5)C4)cc3)nc2c(N2CC3(C2)CS(=O)(=O)C3)n1` [Compound 30, 6-(6-methyl-2-((4-(6-methyl-2,6-diazaspiro[3.3]heptan-2-yl)phenyl)amino)pyrido[3,4-d]pyrimidin-8-yl)-2-thia-6-azaspiro[3.3]heptane 2,2-dioxide], the IC50 was more than 2000 nM with MCF-7 cells; 200 to 500 nM at CDK6/Cyclin D3; 200 to 500 nM at CDK4/Cyclin D1; more than 2000 nM with OVCAR-3 cells; 200 to 500 nM at CDK2/Cyclin E1; more than 2000 nM at CDK1/Cyclin B1 (setting [1]).
`Cc1cc2cnc(NC3CCN(S(=O)(=O)c4cnn(C)c4)CC3)nc2c(N2CC(F)(F)C3(CN(C)C3)C2)n1` [Compound 97, 8-(8,8-difluoro-2-methyl-2,6-diazaspiro[3.4]octan-6-yl)-6-methyl-N-(1-((1-methyl-1H-pyrazol-4-yl)sulfonyl)piperidin-4-yl)pyrido[3,4-d]pyrimidin-2-amine]: the IC50 with MCF-7 cells was 500 to 2000 nM; on CDK6/Cyclin D3, less than 200 nM; on CDK4/Cyclin D1, less than 200 nM; with OVCAR-3 cells, 200 to 500 nM; at CDK2/Cyclin E1, less than 200 nM; against CDK1/Cyclin B1 it was less than 200 nM.
Take `Cc1cc2cnc(NC3CCN(S(=O)(=O)C4CC4)CC3)nc2c(N2CC3(CC(O)C3)C2)n1` [Compound 66, 2-(2-((1-(cyclopropylsulfonyl)piperidin-4-yl)amino)-6-methylpyrido[3,4-d]pyrimidin-8-yl)-2-azaspiro[3.3]heptan-6-ol]: the IC50 is 500 to 2000 nM with MCF-7 cells; less than 200 nM at CDK6/Cyclin D3; less than 200 nM on CDK4/Cyclin D1; 500 to 2000 nM in the experiment on OVCAR-3 cells; less than 200 nM at CDK2/Cyclin E1; 500 to 2000 nM at CDK1/Cyclin B1 (setting [1]).
